Experimental data reported in US10827753B2, “Compositions and methods for controlling nematodes” (Monsanto Technology LLC, priority 2007, dated 2020).
Marks after values point to notes of the source that are not given here.

What was measured:
Meloidogyne incognita [1] = assay: M. incognita miniaturized greenhouse assay on cucumber seedlings (root galling); assay type: in vivo; parameters: key to 1 ppm gall ratings / 1 ppm gall rating: mean of 3 gall ratings: 0=0-5%, 1=6-20%, 2=21-50%, 3=51-100% root galled
Method in brief: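 Compound in acetone/Triton X100 stock (5 mg/mL) diluted into water with 0.015% Triton X100 and applied to sand-planted sprouted cucumber seedlings; inoculated with 500 M. incognita eggs two days after planting. Roots harvested 10–12 days later; galling scored 0–3 by % root mass galled, averaged over triplicates, plus visual root phytotoxicity rating.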

[2] = tested on: sting (Belonolaimus longicaudatus) nematodes; assay: Sting nematode bench top soil assay; assay type: in vivo
Procedure: Populations of sting (Belonolaimus longicaudatus) nematodes are maintained on St. Augustine turf grass on soil in 15-cm pots. At test initiation the turf is removed from the pots and the soil containing nematode eggs, juveniles, and adults is subdivided into pots each containing a volume of 125 cm^3′ The compounds to be tested are dissolved in 3 ml of acetone using 3, 6, or 15 mg to achieve equivalent surface area application rates of 2, 4, or 10 kg/ha, respectively. The 3 ml acetone stock solution is added to 30 ml of water, and 5 ml of that solution is used to drench each of 6 replicate test pots prepared as described above. The treated pots containing nematodes are incubated in the laboratory at ambient temperature of approximately 25° C. After 3 days the soil from each pot is washed onto a modified Baermann apparatus comprised of a screen supporting a layer of filter paper on which the soil sample is placed and set in a dish of water. The samples are then incubated at 25° C. for 24 hours to allow the live nematodes to migrate through the paper and screen and into a water reservoir to be collected for counting with a light microscope. Nematodes that have been killed or immobilized by the test compounds are not able to migrate into the reservoir.

[3] = tested on: CD-1/Swiss derived albino mice; assay type: in vivo; details: 500 mg/kg oral, three female mice, observed up to 14 days
Procedure: Acute oral toxicity testing was performed in mice in accordance with test method P203.UDP, as administered by Eurofins/Product Safety Laboratories (Dayton, N.J.). CD-1/Swiss derived albino mice were obtained and group housed in suspended solid bottom caging. The mice were fed rodent chow and filtered tap water was supplied ad libitum. Following acclimation to the laboratory setting, a group of animals was fasted overnight by removing food from the cages. After the fasting period, three female mice were selected based on vitality and initial body weights. The individual compound doses were calculated from these body weights.
The test substance was prepared as a 1% (50 mg/kg) or 5% (500 mg/kg) weight to weight (w/w) mixture in a 0.5% w/w solution of carboxymethylcellulose (CMC) in distilled water. A tissue homogenizer was used to create a homogeneous mixture. A dose of 50 or 500 mg/kg was administered to three healthy mice per dose level by oral intubation using a ball-tipped gavage needle attached to a syringe. After administration, the animals were returned to their cages, and feed was replaced immediately after dosing.
Body weights were recorded prior to initiation and on Days 7 and 14 or a soon as possible after death.

[4] = tested on: Meloidogyne incognita (RKN); assay: Seed treatment test of root knot nematode on cucumber plants; assay type: in vivo; details: 20 mg ai/gram seed, cucumber seeds
Procedure: (§1) For a given concentration the chemical is dissolved in 500 ul of acetone and one gram of cucumber seed (RKN test) or soybean seed (SCN test) is added (e.g., 20 mg active ingredient in 500 ul acetone plus 1 gram of seed). The seed solutions are agitated until all seeds were thoroughly covered with the chemical solution. The acetone is then allowed to evaporate by air drying the seeds. The seeds are planted in 2-inch pots containing sandy soil and then the pots are inoculated with 1000 Meloidogyne incognita (RKN) or 1000 Heterodera glycines (SCN) eggs per pot three days after planting. Plants are rated for galling 14 days after egg inoculation for RKN or 28 days after egg inoculation for SCN.

Meloidogyne incognita [5] = assay: Fall nematicidal field testing on squash microplots; assay type: in vivo; details: squash
Text: The test site was located at 3511 Highway F in New Melle, Mo., Saint Charles county. The soil was a native prairie/pasture covering silty clay loam soil. Holes were dug using a Bobcat 763 skid loader with a 12-inch auger to a depth of 18 inches. Total volume of each hole was about 1.2 cubic feet. Six cubic yards of topsoil and 9 tons of river sand were purchased from Dardenne Farms Topsoil. Mixing to a ratio of 4 volumes sand to 1 volume soil was accomplished using a trailer-mounted 9 cubic foot concrete mixer. Holes were filled and then re-filled 5 days later after settling. The mixture was 92.5% sand, 2.5% silt, and 5% clay. Organic matter was 0.2% and pH was 6.8.
Treatments were arranged in a block design with the blocks laid out perpendicular to the primary slope and parallel to secondary slope. There are 7 inoculated controls and 5 non-inoculated controls and the distributions of disease severity appeared independent of location.
Application rates are expressed as kg of active material per hectare, and the mg per plot is based on the surface area of the bored and filled holes (0.000008559 Ha). The DC compounds were formulated immediately before application as follows: 1) the amount required to treat all six replicates was dissolved in 300 ml of acetone, 2) for each plot 50 ml of that solution was added to a graduated cylinder with 2 ml of 12.5% Triton X100 and the volume was raised to 500 ml with tap water. The resultant mix is the same as used in the standard greenhouse assays (10% acetone, 0.05%×100). The oxamyl treatments were prepared from Vydate 2 L formulated the same way. The 500 ml was placed in a watering can and the entire volume was evenly sprinkled over the surface of the plot. No runoff occurred and pooling, if any, was short lived. The final drench volume was 0.58 ml/cm^2, compared to 0.2 ml/cm^2 used in our greenhouse, however the microplots are much deeper so the drench volume applied per soil volume treated is roughly the same.
Meloidogyne incognita eggs were harvested over a two week period and stored at approximately 5° C. until needed. A stock of 5.6 million vermiform eggs was adjusted to 9000/ml in 620 ml. One day after treatment, two holes were made in each plot about 7 cm apart and equidistant from the squash plants. Five ml of egg suspension was pipetted into each hole, which was then sealed and the plot lightly watered. A total of 90,000 vermiform eggs were added to each plot.
The first root evaluation was at 28 DAT. The tops were cut off and weighed immediately in the field, and the roots were carefully dug out so as not to disturb the remaining plant.

Meloidogyne incognita [6] = assay: Summer field evaluation of pre-plant incorporated compounds on squash; assay type: in vivo; details: for 0-3 vigor 16 DAP / 0-3 vigor 21 DAP / feeder root (3 = ave) 31 DAP / gall % 31 DAP / root wgt (g) 31 DAP / top wgt (lbs) 31 DAP / total fruit (lbs): 4 kg (kg/ha) PPI, squash
Method in brief: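 PPI simulation: compound in acetone/Triton X-100 and water mixed into 80% sand/20% silt loam with chopped galled tomato roots, filling top 15 cm of 6 replicate field plots. M. incognita eggs/larvae (100 k per plot) injected 5 cm deep; three-week-old squash cv. Liberator III planted 4 days after treatment.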

[7] = tested on: Heterodera glycines (SCN); assay: Seed treatment test of soybean cyst nematode on soybean plants; assay type: in vivo; details: test b
Procedure: as §1

mice = details: cited from earlier work
root knot nematode = assay: Pre-plant incorporated (PPI) greenhouse test of root knot nematode on cucumber plants; assay type: in vivo, Meloidogyne incognita; details: Meloidogyne incognita, fourteen day pre-plant incorporated, test b, read-out: percent control (galling reduction) relative to the control blank treatment; for pest or weed control at 4000 g/ha: 4 kg/ha rate; for pest or weed control at 8000 g/ha: 8 ka/ha rate
Text: The PPI test examines the effect of pre-incorporation of compounds in soil and longer aging to simulate in furrow methods of nematicide application in the field. The PPI test exposes compounds to a higher volume of soil and drying which can result in more severe soil binding. Compounds are also aged for longer periods which can lead to more extensive biotic and abiotic degradation further limiting activity.
The chemically treated soil (sandy soil mix) for all treatment days (e.g., 7 days, 14 days, 21 days) treatments is potted into their appropriate pots. On the same day the 7 day treatment pots are seeded. One week later eggs are applied and 14 days after egg application the test is harvested. The 14 day treatments are planted 7 days after the first planting. The 14 day planting and 7 day inoculation happen on the same day. One week later the 14 day treatments are inoculated with eggs. These are harvested 14 days after the inoculation. The 21 day treatments are planted 14 days after the first planting. The 14 day inoculation and 21 day planting are done on the same day. One week later the 21 day plants are inoculated with eggs. The 7 day treatment is harvested the same day as the 21 day inoculation. Fourteen days after inoculation the 21 day plants are harvested.
For each compound a stock is prepared using 4 mg material in 4 ml of acetone. The soil is mixed by placing 80 ml of field soil and 320 ml of sand in a plastic bag and mixing well. The formulation for treatment is done by adding 2.13 ml (8 kg/ha rate), 1.06 ml (4 kg/ha rate) or 0.53 ml (2 kg/ha rate) to a vial and raising it with 10 ml in 0.05%×100. Soil is then treated by adding the entire 10 ml to the 400 ml of mix in the bag. The treated soil is immediately mixed well in the sealed bag to distribute the compound evenly. Approximately 95 ml is used to fill each 2-inch square pot up to the top with some soil compression and flattening. For each compound and for the control treatments 4 pots are filled. All pots are watered until moist but with no run-out through the bottom.
The PPI test simulates 8, 4 and 2 kg/ha rates incorporated 15 cm deep in the field and is equivalent to the 2, 1 and 0.5 kg/ha drench application rates in the standard 2-inch pot cucumber greenhouse assay.

[8] = tested on: caspase-3 in rat hepatoma derived H4IIE cells; assay: Caspase-3 activity (DEVD-AMC) after compound exposure in H4IIE cells; assay type: cell-based; details: concentrations up to 300 μM
Procedure: Caspase 3 cleaves the tetrapeptide between D and AMC, thus releasing the fluorogenic […] AMC. Following the test article exposure to cells in 96-well plates, medium was aspirated from plates and PBS added to each well. Plates were stored at −80° C. to lyse cells and store samples until further analysis. On the day of analysis, plates were removed from freezer and thawed. Caspase buffer with fluorescent substrate was added to each well and incubated at room temperature for one hour. AMC release was measured in a spectrofluorometer at an excitation wavelength of 360 nm and an emission wavelength of 460 nm. Values are expressed as relative fluorescent units (RFU).

In the case of Fc1ccc(-c2cnc(-c3cccs3)o2)cc1 [compound 4775], the “8 ppm gall ratings” value (Meloidogyne incognita [1]; 8 ppm, average of triplicate gall rating, scale 0-3 (% root mass galled)) is reported as 0 (0=0-5%), the “Number of nematodes recovered from treated soil after 3 days incubation with the compound” value (“Number of nematodes recovered” for short) ([2]; 2 kg/ha) is reported as 15 and the “Number of nematodes recovered” value ([2]; 4 kg/ha) is reported as 7. For the same compound, the “Number of nematodes recovered” value ([2]; 10 kg/ha) was 4, the “mortality, signs of gross toxicity and behavioral changes” value [3] was “all animals survived, gained body weight, and appeared active and healthy” and the “percent control (galling reduction) relative to the control blank treatment” value [4] was 77%.

With CNC(=O)O/N=C(\SC)C(=O)N(C)C [Oxamyl, oxamyl, reference compound] the gall ratings (Meloidogyne incognita [1]; 1 ppm (oxamyl standard of Table 1A), average of triplicate, scale 0-3) was 0.67 (1 ppm), the “1 ppm gall ratings” value (Meloidogyne incognita [1]; Table 1B test a) was 0.67 and the “1 ppm gall ratings” value (Meloidogyne incognita [1]; Table 1B test b) was 1 (1=6-20%). For the same compound, the “1 ppm gall ratings” value (Meloidogyne incognita [1]; Table 1B test c) was 1.33, the “1 ppm gall ratings” value (Meloidogyne incognita [1]; Table 1B test d) was 1.33 and the “1 ppm gall ratings” value (Meloidogyne incognita [1]; Table 1B test e) was 1 (1=6-20%). For the same compound, the “1 ppm gall rating” value (Meloidogyne incognita [1]; Table 1C test a) was 1.33, the “1 ppm gall rating” value (Meloidogyne incognita [1]; Table 1C test b) was 1 (1=6-20%) and the “1 ppm gall rating” value (Meloidogyne incognita [1]; Table 1C test c) was 0.67^c. The “1 ppm gall rating” value (Meloidogyne incognita [1]; Table 1D test a) was 1.33^a,, the “1 ppm gall rating” value (Meloidogyne incognita [1]; Table 1D test b) was 1^b (1=6-20%) and the “RG28 = % root galls at 28 days after treatment” value (Meloidogyne incognita [5]; 2 kg ai/ha drench) was 45.0%. The “RG43 = % root galls at 43 days after treatment” value (Meloidogyne incognita [5]; 2 kg ai/ha drench) was 42.3%, the “RG28 = % root galls at 28 days after treatment” value (Meloidogyne incognita [5]; 5 kg ai/ha drench) was 10.5% and the “RG43 = % root galls at 43 days after treatment” value (Meloidogyne incognita [5]; 5 kg ai/ha drench) was 17.3%. The “0-3 vigor 16 DAP” value (Meloidogyne incognita [6]) was 2.7, the “0-3 vigor 21 DAP” value (Meloidogyne incognita [6]) was 2.5 and the “feeder root (3 = ave) 31 DAP” value (Meloidogyne incognita [6]) was 3.0. For the same compound, the “gall % 31 DAP” value (Meloidogyne incognita [6]) was 85%, the “root wgt (g) 31 DAP” value (Meloidogyne incognita [6]) was 37.0 g and the “top wgt (lbs) 31 DAP” value (Meloidogyne incognita [6]) was 1.16 lbs. The “total fruit (lbs)” value (Meloidogyne incognita [6]) was 1.09 lbs, the “percent cyst reduction relative to control blank treatment” value ([7]; 0.375 mg al/gram seed) was −4^b percent and the “percent cyst reduction relative to control blank treatment” value ([7]; 1.5 mg al/gram seed) was 71^b percent. For the same compound, the “oral LD50 in mice” value (mice) was 2.3 mg/kg.

In the case of Fc1cc(Cl)ccc1-c1cnc(-c2cccs2)o1 [compound 5915], the “1 ppm gall ratings” value (Meloidogyne incognita [1]; Table 1B test e) is reported as 0.33^e, the pest or weed control at 4000 g/ha (root knot nematode) is reported as 70% and the pest or weed control at 8000 g/ha (root knot nematode) is reported as 99%. The “induction of caspase-3 (apoptosis marker)” value [8] was “no induction of caspase-3”.

For Cc1cc(Cl)ccc1-c1nsc(-c2ccco2)n1 [compound 5938], the “1 ppm gall ratings” value (Meloidogyne incognita [1]; Table 1B test e) was 0.67^e, the pest or weed control at 4000 g/ha (root knot nematode) was 90% and the pest or weed control at 8000 g/ha (root knot nematode) was 100%. The “0-3 vigor 16 DAP” value (Meloidogyne incognita [6]) was 2.5, the “0-3 vigor 21 DAP” value (Meloidogyne incognita [6]) was 2.7 and the “feeder root (3 = ave) 31 DAP” value (Meloidogyne incognita [6]) was 2.7. For the same compound, the “gall % 31 DAP” value (Meloidogyne incognita [6]) was 9%, the “root wgt (g) 31 DAP” value (Meloidogyne incognita [6]) was 24.1 g and the “top wgt (lbs) 31 DAP” value (Meloidogyne incognita [6]) was 1.60 lbs. For the same compound, the “total fruit (lbs)” value (Meloidogyne incognita [6]) was 1.22 lbs, the “control of M. incognita (in words)” value (Meloidogyne incognita [6]; PPI application at 4 kg/ha) was “excellent control” and the “induction of caspase-3 (apoptosis marker)” value [8] was “no induction of caspase-3”.
